Reference: patent publication US20250032490A1, “THERAPEUTIC REGIMENS FOR TREATMENT OF PAROXYSMAL NOCTURNAL HEMOGLOBINURIA” (Achillion Pharmaceuticals, Inc., priority 2017, published 2025)

B1: Eculizumab: monoclonal antibody complement inhibitor of the terminal component C5; only approved therapy for PNH (antibody, chains of the INN, looked up)
heavy: QVQLVQSGAEVKKPGASVKVSCKASGYIFSNYWIQWVRQAPGQGLEWMGEILPGSGSTEYTENFKDRVTMTRDTSTSTVYMELSSLRSEDTAVYYCARYFFGSSPNWYFDVWGQGTLVTVSSASTKGPSVFPLAPCSRSTSESTAALGCLVKDYFPEPVTVSWNSGALTSGVHTFPAVLQSSGLYSLSSVVTVPSSNFGTQTYTCNVDHKPSNTKVDKTVERKCCVECPPCPAPPVAGPSVFLFPPKPKDTLMISRTPEVTCVVVDVSQEDPEVQFNWYVDGVEVHNAKTKPREEQFNSTYRVVSVLTVLHQDWLNGKEYKCKVSNKGLPSSIEKTISKAKGQPREPQVYTLPPSQEEMTKNQVSLTCLVKGFYPSDIAVEWESNGQPENNYKTTPPVLDSDGSFFLYSRLTVDKSRWQEGNVFSCSVMHEALHNHYTQKSLSLSLG
light: DIQMTQSPSSLSASVGDRVTITCGASENIYGALNWYQQKPGKAPKLLIYGATNLADGVPSRFSGSGSGTDFTLTISSLQPEDFATYYCQNVLNTPLTFGQGTKVEIKRTVAAPSVFIFPPSDEQLKSGTASVVCLLNNFYPREAKVQWKVDNALQSGNSQESVTEQDSKDSTYSLSSTLTLSKADYEKHKVYACEVTHQGLSSPVTKSFNRGEC

Assays:
[1] = test system: C3 fragment deposition on artificial PNH cells; assay: C3 fragment deposition on artificial PNH cells (flow cytometry); format: cell-based; conditions: 32% acidified C5-depleted normal human serum; read-out: IC50, inhibition of C3 fragment deposition on artificial PNH cells
Procedure: C5-depleted normal human serum (C5-Dpl NHS), gelatin veronal buffer (GVB) without Ca^++ and Mg^++ (GVB^0), 100 mM MgCl2+100 mM EGTA (MgEGTA) were obtained from Complement Technology Inc. (Tyler, TX). GVB^0·MgEGTA was prepared by mixing GVB^0 and 100 mM MgEGTA in a 9:1 ratio. FITC-conjugated anti-C3c antibody (cat #ab4212) and Alexa Fluor® 647-conjugated anti human CD59 antibody (cat #:ab187769) were purchased from Abcam (Cambridge, MA). […] Ferrone, and F. Mercuriali, The Action of Two Sulfhydryl Compounds on Normal Human Red Cells. Relationship to Red Cells of Paroxysmal Nocturnal Hemoglobinuria. Blood, 1965. 25: p. 502-10). After AET treatment, artificial PNH erythrocytes were centrifuged, supernatant was aspirated and cells were thoroughly washed with phosphate buffered saline (PBS) 3 times followed by washing with GVB^0 buffer ([…]) for additional 3 times. […] C3 fragment deposition on the surface of the erythrocytes was assessed by flow cytometry with BD Accuri C6 cytometer (BD Biosciences, San Jose, CA). […] IC50 values from each experiment were determined by curve-fitting of experimental data (the % C3 fragment-positive cells at increasing concentrations of inhibitor) to the four-parameter sigmoidal dose-response equation using non-linear regression analysis (Prism Software, GraphPad, La Jolla, CA).

[2] = test system: C3 fragment deposition on rabbit erythrocytes; assay: C3 fragment deposition on rabbit erythrocytes (flow cytometry); format: cell-based; conditions: 20% C5-depleted normal human serum; read-out: IC50, inhibition of C3 fragment deposition on rabbit erythrocytes
Procedure: Rabbit erythrocytes, C5-depleted normal human serum (C5-Dpl NHS), gelatin veronal buffer (GVB) without Ca^++ and Mg (GVB^0), 100 mM MgCl2+100 mM EGTA (MgEGTA) were obtained from Complement Technology Inc. (Tyler, TX). GVB^0·MgEGTA was prepared by mixing GVB^0 and 100 mM MgEGTA in a 9:1 ratio. FITC-conjugated anti-C3c antibody (cat#ab4212) and Alexa Fluor® 647-conjugated anti human CD59 antibody (cat#: ab187769) were purchased from Abcam (Cambridge, MA).
Reactions were incubated at 37° C. for 15 minutes, the reactions were quenched by addition of EDTA at a final concentration of 20 mM. Cells were stained with a FITC-conjugated anti-C3c antibody at a dilution of 1:200 and C3 fragment deposition on the surface of rabbit erythrocytes was assessed by flow cytometry with BD Accuri C6 cytometer (BD Biosciences, San Jose, CA). Forward and side scatter parameters were used to gate intact erythrocytes. Controls included cells labeled with FITC-conjugated antibody isotype control. IC50 values from each experiment were determined by curve-fitting of experimental data (the % C3 fragment-positive cells at increasing concentrations of inhibitor) to the four-parameter sigmoidal dose-response equation using non-linear regression analysis (Prism Software, GraphPad, La Jolla, CA).

PNH erythrocytes = assay: CAP-mediated hemolysis assay with PNH erythrocytes (subject A); format: cell-based, human; conditions: for Inhibition (%) of CAP activity: Compound 1 0 μM
Procedure: Complement-preserved normal human serum (NHS) from an individual donor of ABO blood group type AB (NHS-AB) was purchase from BioreclamationIVT (Westbury, NY). Gelatin veronal buffer (GVB), pH 7.3, without Ca^++ and Mg^++ (GVB^0) and 100 mM MgCl2 +100 mM EGTA (MgEGTA) were obtained from Complement Technology Inc. (Tyler, TX).
GVB^0·MgEGTA was prepared by mixing GVB^0 and 100 mM MgEGTA in a 9:1 ratio. PNH erythrocytes were used within five days of blood collection; before assay cells were collected by centrifugation at 800×g and 4° C. for 3 minutes and resuspended in fresh cold GVB^0·MgEGTA to a density of 5×10^8 cells/mL.
50 μL of NHS-AB was added to each well. The plates were mixed and incubated at room temperature for 5 minutes. 24 μL of this NHS-AB with compound was then transferred to duplicate wells of V-bottom microtiter plates each containing 76 μL GVB0·MgEGTA. 20 μL PNH erythrocytes was then added to each well and the plates were sealed, mixed, and incubated at 37° C. for 30 minutes with an added shaking for 15 minutes. […] Following incubation, PNH cells were removed by centrifugation at 800×g and 4° C. for 3 minutes, 100 μL supernatant per well was transferred to flat-bottom clear microtiter plates, and A405 of the supernatant was measured in a Molecular Devices Spectramax Plus plate reader.
Combinatorial interactions were analyzed via two methods.
Inhibition was analyzed by the method of Prichard and Shipman (Prichard, M. N. and C. Shipman, Jr. A Three-Dimensional Model to Analyze Drug-Drug Interactions. Antiviral Research 1990, 14:181-205) Three-dimensional surface graphs of each experiment were generated and analyzed using an Excel spreadsheet program adapted from the MacSynergy II spreadsheet (University of Alabama, Birmingham, AL). The X-axis and Y-axis of each surface graph represent the concentrations of the two test compounds, and the Z-axis represents the difference between measured inhibition and a theoretically determined additive inhibition. For an additive relationship, the surface graph resembles a horizontal plane at Z=0, whereas positive surface peaks indicate greater inhibition than expected and therefore synergy, and negative surface peaks indicate less inhibition than expected and therefore antagonism.
Synergy and antagonism volumes were calculated separately as the summed volumes of peaks respectively above and below the Z=0 plane. Volumes were determined using 95% confidence limits to assure significance.
Inhibition was analyzed by the method of Chou and Talalay (Chou, T.-C. and P. Talalay. Analysis of Combined Drug Effects: A New Look at a Very Old Problem. Trends Pharmacol. Sci. 1983, 4:450-454; Chou, T. C. Theoretical basis, experimental design, and computerized simulation of synergism and antagonism in drug combination studies. Pharmacological Reviews 2006, 58:621-681). Analysis using the median-effect equation of Chou and Talalay was performed with CompuSyn software (ComboSyn, Inc, Paramus, NJ). […] Combination index (CI) values were determined at inhibition values of 50%, 75%, and 90%.

| Molecule | IC50 [1] | IC50 [2] | Inhibition (%) of CAP activity (PNH erythrocytes; Experiment 2, Compstatin 0-300 μM) | Inhibition (%) of CAP activity (PNH erythrocytes; Experiment #1, Compstatin 0-300 μM) | inhibition at the high end of the test concentration ranges (PNH erythrocytes; single agent, PNH erythrocytes) | Inhibition (%) of CAP activity (PNH erythrocytes; Experiment 2, Eculizumab 0-400 μg/mL) | Inhibition (%) of CAP activity (PNH erythrocytes; Experiment #1, Eculizumab 0-400 μg/mL) |
| --- | --- | --- | --- | --- | --- | --- | --- |
| CC[C@H](C)[C@H](N)C(=O)N[C@H]1CSSC[C@@H](C(=O)N[C@H](C(N)=O)[C@@H](C)O)NC(=O)[C@H](CCCN=C(N)N)NC(=O)[C@H](Cc2cnc[nH]2)NC(=O)[C@H](Cc2cnc[nH]2)NC(=O)CNC(=O)[C@H](Cc2c[nH]c3ccccc23)NC(=O)[C@H](CC(=O)O)NC(=O)[C@H](CCC(N)=O)NC(=O)[C@H](C(C)C)NC(=O)[C@H](C(C)C)NC1=O [Compstatin, reference compound] | 2.2 µM | 1.4 µM | 0% | 0% | complete inhibition | – | – |
| B1 | – | – | – | – | – | 0% | 0% |
